This is an account of results in patent US20200031866A1, “PEPTIDE INHIBITORS OF SODIUM CHANNELS” (SPYRYX BIOSCIENCES, INC., priority 2016, published 2020).

Data set [1] has as its target T1, alpha-ENaC (Homo sapiens, UniProt P37088).
T1 construct: expressed in transfected cells; host or cells: HEK293T
T1 sequence (P37088 1-669): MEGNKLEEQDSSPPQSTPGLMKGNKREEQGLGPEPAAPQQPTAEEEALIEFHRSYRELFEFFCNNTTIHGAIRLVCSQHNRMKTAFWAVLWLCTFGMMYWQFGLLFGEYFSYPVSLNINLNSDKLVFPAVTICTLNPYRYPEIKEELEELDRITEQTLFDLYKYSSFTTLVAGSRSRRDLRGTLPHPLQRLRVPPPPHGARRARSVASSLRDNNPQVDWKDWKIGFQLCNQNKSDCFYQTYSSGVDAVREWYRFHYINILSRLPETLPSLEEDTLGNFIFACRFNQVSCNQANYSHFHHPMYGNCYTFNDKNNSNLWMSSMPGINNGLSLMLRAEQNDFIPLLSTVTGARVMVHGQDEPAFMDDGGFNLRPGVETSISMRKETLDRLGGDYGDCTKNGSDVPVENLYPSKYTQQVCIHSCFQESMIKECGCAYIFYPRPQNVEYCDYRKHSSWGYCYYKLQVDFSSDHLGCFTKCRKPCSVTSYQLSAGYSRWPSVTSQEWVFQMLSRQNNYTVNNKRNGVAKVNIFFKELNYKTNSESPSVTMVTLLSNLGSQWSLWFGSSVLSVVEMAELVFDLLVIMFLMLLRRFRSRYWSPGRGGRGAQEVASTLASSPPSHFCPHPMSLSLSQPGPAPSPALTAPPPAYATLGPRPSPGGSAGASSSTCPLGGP
Kind of data set: Internalization of alpha-ENaC in HEK293T cells, GFP-tagged alpha-ENaC co-expressed only with gamma ENaC and no beta-ENaC. In kind it is cell-based. The settings on record: FIG. 6. The method, then: […] Am J Physiol Lung Cell Mol Physiol. 2013 December; 305(12):L990-L1001. doi: 10.1152/ajplung.00103.2013. Epub 2013 October; Garland et al. Proc Natl Acad Sci USA. 2013 Oct. 1; 110(40):15973-8. doi: 10.1073/pnas.1311999110. Epub 2013 Sep. 16.; Tan et al. J Physiol. 2014 Dec. 1; 592(Pt 23):5251-68). Twenty-four hours later, peptide or vehicle control were added at t=0 and fluorescence was read using a Tecan M1000 plate reader 3 h later. Fluorescence was read at 488 nm (excitation)/510 nm (emission).

In a further data set the test system is proteases. Type of data set: in vitro ADME.
The target of another data set is T2, ENaC (Homo sapiens, UniProt P37088+P51168+P51170).
T2 construct: Peptides were added mucosally to HBECs at 30 μM and ASL height measured 3 h later by XZ-confocal microscopy; endogenous in cells; host or cells: primary human bronchial epithelial cultures (HBECs) at air-liquid interface
T2 sequence (P37088 1-669): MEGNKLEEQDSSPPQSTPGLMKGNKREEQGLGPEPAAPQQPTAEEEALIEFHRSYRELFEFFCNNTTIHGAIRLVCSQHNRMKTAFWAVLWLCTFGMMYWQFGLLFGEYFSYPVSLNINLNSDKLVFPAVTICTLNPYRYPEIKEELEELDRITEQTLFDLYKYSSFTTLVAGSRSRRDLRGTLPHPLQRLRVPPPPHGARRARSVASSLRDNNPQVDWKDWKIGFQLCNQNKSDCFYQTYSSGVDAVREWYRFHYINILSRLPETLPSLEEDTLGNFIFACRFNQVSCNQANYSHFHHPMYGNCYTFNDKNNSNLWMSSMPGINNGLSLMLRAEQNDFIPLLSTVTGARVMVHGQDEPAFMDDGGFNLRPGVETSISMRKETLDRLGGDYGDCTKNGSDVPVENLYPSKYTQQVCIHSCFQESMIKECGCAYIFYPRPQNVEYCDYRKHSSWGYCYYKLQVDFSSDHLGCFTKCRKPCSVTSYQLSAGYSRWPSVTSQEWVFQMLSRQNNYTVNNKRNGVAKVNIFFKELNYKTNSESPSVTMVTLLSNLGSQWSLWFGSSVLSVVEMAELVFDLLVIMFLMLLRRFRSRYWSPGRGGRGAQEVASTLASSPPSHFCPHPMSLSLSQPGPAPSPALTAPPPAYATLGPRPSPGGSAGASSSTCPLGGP
T2 sequence (P51168 1-640): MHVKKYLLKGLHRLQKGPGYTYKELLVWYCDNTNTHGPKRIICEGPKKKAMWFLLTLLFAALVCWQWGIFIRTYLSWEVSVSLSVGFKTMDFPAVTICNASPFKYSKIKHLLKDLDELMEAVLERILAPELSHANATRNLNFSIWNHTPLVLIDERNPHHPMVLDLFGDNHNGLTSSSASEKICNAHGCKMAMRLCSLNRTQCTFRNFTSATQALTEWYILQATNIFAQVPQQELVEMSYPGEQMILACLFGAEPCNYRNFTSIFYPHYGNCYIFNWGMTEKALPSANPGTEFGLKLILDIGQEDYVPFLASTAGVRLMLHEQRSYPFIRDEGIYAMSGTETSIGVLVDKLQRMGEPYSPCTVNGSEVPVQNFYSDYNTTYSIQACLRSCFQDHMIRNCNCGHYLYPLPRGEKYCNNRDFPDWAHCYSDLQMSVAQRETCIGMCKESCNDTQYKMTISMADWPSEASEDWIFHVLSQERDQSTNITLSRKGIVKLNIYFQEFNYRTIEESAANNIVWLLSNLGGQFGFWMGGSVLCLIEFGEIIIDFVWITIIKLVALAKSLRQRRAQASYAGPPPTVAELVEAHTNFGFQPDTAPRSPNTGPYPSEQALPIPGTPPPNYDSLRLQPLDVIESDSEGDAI
T2 sequence (P51170 1-649): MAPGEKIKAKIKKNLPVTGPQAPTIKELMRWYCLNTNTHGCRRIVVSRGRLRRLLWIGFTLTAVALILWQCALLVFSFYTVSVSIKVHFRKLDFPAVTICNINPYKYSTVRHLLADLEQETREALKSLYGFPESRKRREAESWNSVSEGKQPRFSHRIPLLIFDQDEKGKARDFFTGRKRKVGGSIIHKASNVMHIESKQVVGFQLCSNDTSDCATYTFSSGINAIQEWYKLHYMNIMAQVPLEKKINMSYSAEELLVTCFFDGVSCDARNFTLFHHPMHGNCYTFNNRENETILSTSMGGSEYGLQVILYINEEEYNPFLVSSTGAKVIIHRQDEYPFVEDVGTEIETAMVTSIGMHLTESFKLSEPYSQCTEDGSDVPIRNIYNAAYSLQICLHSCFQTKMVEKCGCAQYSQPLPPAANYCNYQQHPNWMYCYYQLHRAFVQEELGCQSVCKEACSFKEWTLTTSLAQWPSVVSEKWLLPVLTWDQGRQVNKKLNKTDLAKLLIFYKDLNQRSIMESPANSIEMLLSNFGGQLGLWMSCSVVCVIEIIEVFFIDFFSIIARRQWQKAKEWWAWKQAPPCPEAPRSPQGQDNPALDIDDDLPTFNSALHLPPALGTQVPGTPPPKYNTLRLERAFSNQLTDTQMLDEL
The settings on record: previously demonstrated (Hobbs et al., 2013); cited from earlier work.

The nature of another data set: Heat stability. Type of data set: physicochemical.
In data set [2] the target is T3, alpha-ENaC (Homo sapiens, UniProt P37088+P51168+P51170).
T3 construct: expressed in transfected cells; host or cells: HEK293T
T3 sequence (P37088 1-669): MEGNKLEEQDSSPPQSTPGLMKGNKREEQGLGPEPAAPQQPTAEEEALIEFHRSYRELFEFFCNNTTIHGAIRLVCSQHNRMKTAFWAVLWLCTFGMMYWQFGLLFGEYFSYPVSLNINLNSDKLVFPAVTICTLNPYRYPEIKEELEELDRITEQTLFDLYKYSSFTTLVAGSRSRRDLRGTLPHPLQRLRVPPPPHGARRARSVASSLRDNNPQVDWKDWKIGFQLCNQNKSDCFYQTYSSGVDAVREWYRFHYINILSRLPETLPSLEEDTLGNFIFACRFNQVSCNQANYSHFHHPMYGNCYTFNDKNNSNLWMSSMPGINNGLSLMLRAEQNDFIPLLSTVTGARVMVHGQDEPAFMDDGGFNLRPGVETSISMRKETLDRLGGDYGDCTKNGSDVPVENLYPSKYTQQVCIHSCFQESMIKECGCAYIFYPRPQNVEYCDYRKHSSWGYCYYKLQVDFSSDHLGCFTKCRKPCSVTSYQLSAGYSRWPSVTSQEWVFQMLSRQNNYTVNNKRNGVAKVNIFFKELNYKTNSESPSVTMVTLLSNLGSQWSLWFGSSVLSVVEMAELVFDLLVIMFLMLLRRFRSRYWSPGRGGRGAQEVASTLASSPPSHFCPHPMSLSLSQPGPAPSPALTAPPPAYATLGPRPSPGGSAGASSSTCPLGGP
T3 sequence (P51168 1-640): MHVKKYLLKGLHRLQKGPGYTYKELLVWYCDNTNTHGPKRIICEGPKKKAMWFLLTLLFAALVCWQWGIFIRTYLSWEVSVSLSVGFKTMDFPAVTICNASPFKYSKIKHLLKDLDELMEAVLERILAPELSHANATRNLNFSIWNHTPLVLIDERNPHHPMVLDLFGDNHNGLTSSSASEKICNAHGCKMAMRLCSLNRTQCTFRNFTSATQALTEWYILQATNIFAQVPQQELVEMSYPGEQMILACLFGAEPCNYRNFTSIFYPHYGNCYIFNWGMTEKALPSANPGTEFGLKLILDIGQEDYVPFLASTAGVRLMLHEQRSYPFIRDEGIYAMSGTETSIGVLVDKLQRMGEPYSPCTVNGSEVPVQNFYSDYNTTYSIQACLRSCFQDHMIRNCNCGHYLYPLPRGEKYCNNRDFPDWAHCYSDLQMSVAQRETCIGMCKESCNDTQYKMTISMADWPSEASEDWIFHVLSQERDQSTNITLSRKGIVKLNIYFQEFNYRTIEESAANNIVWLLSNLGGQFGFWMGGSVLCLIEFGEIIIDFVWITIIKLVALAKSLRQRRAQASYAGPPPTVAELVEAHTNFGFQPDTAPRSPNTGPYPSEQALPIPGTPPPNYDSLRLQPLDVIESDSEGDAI
T3 sequence (P51170 1-649): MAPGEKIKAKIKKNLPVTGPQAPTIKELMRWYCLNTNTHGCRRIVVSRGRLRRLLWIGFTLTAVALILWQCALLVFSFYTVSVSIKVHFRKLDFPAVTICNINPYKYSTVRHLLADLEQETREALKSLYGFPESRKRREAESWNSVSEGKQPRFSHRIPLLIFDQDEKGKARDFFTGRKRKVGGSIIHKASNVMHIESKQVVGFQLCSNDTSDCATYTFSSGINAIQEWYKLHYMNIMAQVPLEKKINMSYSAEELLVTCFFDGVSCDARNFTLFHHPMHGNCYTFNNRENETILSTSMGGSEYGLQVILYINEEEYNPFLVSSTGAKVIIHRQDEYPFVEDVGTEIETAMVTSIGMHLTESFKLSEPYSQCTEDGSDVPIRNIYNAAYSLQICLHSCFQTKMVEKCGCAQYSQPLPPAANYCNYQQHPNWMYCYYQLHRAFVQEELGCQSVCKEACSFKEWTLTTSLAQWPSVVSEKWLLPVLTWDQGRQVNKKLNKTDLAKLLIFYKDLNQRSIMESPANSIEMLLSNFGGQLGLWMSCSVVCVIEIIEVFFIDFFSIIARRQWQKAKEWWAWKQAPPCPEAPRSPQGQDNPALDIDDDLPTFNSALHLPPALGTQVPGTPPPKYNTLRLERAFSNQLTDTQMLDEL
The data set is described as follows: Internalization of alpha-ENaC in HEK293T cells, GFP-tagged alpha-ENaC co-expressed with beta and gamma ENaC. Type of data set: cell-based. The settings on record: beta-ENaC co-expressed, FIGS. 5A-5U. The source says:
HEK293T cells were transfected with gfp-αENaC where gfp was fused at the N-terminus of ENaC and unlabeled βENaC and γENaC using lipofectamine in 384 well plates as per the manufacturer's instructions and as published previously (see, e.g., Hobbs et al. Am J Physiol Lung Cell Mol Physiol. 2013 December; 305(12):L990-L1001. doi: 10.1152/ajplung.00103.2013. Epub 2013 October; Garland et al. Proc Natl Acad Sci USA. 2013 Oct. 1; 110(40):15973-8. doi: 10.1073/pnas.1311999110. Epub 2013 Sep. 16.; Tan et al. J Physiol. 2014 Dec. 1; 592(Pt 23):5251-68). Twenty-four hours later, peptide or vehicle control were added at t=0 and fluorescence was read using a Tecan M1000 plate reader 3 h later. Fluorescence was read at 488 nm (excitation)/510 nm (emission).

The target of data set [3] is epithelial Na+ channel (ENaC), endogenous in human bronchial epithelial cultures (human, UniProt P37088 1-669; P51168 1-640; P51170 1-649). The data set is described as follows: cell-based or functional assay.

Square brackets hold non-standard residues; d marks the D form. Ends that are not written are not given here. Nle = CCCC[C@H](N)C(=O)O

On to H-GGLPVPLDQTLPLNVNPA-NH2 [SEQ ID NO:1], for which the “effect on alpha-ENaC” value at alpha-ENaC [1] is given as “no effect”. Further, in the data set on proteases, the “susceptibility to proteolytic degradation” value was “resistant to proteolysis”. Also, on ENaC, the “EC50 for inhibition of ENaC” value was “sub micromolar” and the “duration of ENaC inhibition following a single dose” value was “up to 24 h”. For the same molecule, the heat stability entry in the data set “Heat stability” is “heat-stable”. For the same molecule, the “reduction of alpha-ENaC / functional receptor on the cell surface” value at alpha-ENaC [2] is “effective in reducing alpha-ENaC”.

B1: aaLPNlePLDQTaa (SEQ ID NO:5) (peptide)
peptide: [dA][dA]LP[Nle]PLDQT[dA][dA]-NH2
modifications: N-terminus assumed
SMILES: CCCC[C@H](NC(=O)[C@@H]1CCCN1C(=O)[C@H](CC(C)C)NC(=O)[C@@H](C)NC(=O)[C@@H](C)N)C(=O)N1CCC[C@H]1C(=O)N[C@@H](CC(C)C)C(=O)N[C@@H](CC(=O)O)C(=O)N[C@@H](CCC(N)=O)C(=O)N[C@H](C(=O)N[C@H](C)C(=O)N[C@H](C)C(N)=O)[C@@H](C)O
In the case of B1, the “IC50, dose response of ASL height on airway cells” value in data set [3] came to 30 nM.
